Measurements from PubChem BioAssay (NCI).
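Tested at 5 concentrations; 48 h exposure; 96-well plates; endpoints linearly interpolated, else capped at highest concentration. At the TGI there is no net growth.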

Columns and labels:
Assay in all cases: growth of human tumour cells (NCI), 48 h
[1] = test system: OVCAR-3 ovarian
[2] = test system: SK-MEL-28 melanoma
[3] = test system: NCI-H522 lung
[4] = test system: EKVX NSCLC
[5] = test system: UACC-257 melanoma
[6] = test system: KM12 colon
[7] = test system: COLO 205 colon
[8] = test system: SF-295 CNS
[9] = test system: CAKI-1 renal
[10] = test system: MDA-MB-435
[11] = test system: HS 578T breast
[12] = test system: HCC-2998 colon
[13] = test system: SN12C renal
[14] = test system: HOP-62 NSCLC
[15] = test system: A549 NSCLC
[16] = test system: UACC-62 melanoma
[17] = test system: A498 renal
[18] = test system: HT29 colon
[19] = test system: SNB-75 CNS
[20] = test system: SNB-19 CNS
[21] = test system: K-562 leukemia
[22] = test system: OVCAR-4 ovarian
[23] = test system: TK-10 renal
[24] = test system: U251 CNS
[25] = test system: NCI-H460 lung
[26] = test system: SW-620 colon
[27] = test system: OVCAR-8 ovarian
[28] = test system: LOX IMVI melanoma
[29] = test system: HCT-15 colon
[30] = test system: RPMI-8226 leukemia
[31] = test system: T-47D breast
[32] = test system: SK-MEL-5 melanoma
[33] = test system: HCT-116 colon
[34] = test system: BT-549 breast
[35] = test system: SK-MEL-2 melanoma
[36] = test system: PC-3 prostate
[37] = test system: NCI-H23 lung
[38] = test system: IGROV1 ovarian
[39] = test system: OVCAR-5 ovarian
[40] = test system: MALME-3M melanoma
[41] = test system: NCI/ADR-RES ovarian
[42] = test system: SF-539 CNS
[43] = test system: M14 melanoma
[44] = test system: DU-145 prostate
[45] = test system: SK-OV-3 ovarian
[46] = test system: ACHN renal
[47] = test system: MOLT-4 leukemia
[48] = test system: UO-31 renal
[49] = test system: 786-0 renal
[50] = test system: CCRF-CEM leukemia
[51] = test system: NCI-H226 lung
[52] = test system: MDA-N
[53] = test system: MCF7 breast
[54] = test system: RXF 393 renal
[55] = test system: SF-268 CNS
[56] = test system: MDA-MB-231 breast
[57] = test system: HL-60(TB) leukemia
[58] = test system: HOP-92 NSCLC
[59] = test system: SR leukemia

Cc1n(CC(=O)c2ccccc2)nc2sc(N)n[n+]12
TGI [1]: > 100 µM
TGI [2]: > 100 µM
TGI [3]: > 100 µM
TGI [4]: > 100 µM
TGI [5]: > 100 µM
TGI [6]: > 100 µM
TGI [7]: > 100 µM
TGI [8]: > 100 µM
TGI [9]: > 100 µM
TGI [10]: > 100 µM
TGI [11]: > 100 µM
TGI [12]: > 100 µM
TGI [13]: > 100 µM
TGI [14]: > 100 µM
TGI [15]: > 100 µM
TGI [16]: 37.4 µM
TGI [17]: > 100 µM
TGI [18]: > 100 µM
TGI [19]: > 100 µM
TGI [20]: > 100 µM
TGI [21]: > 100 µM
TGI [22]: > 100 µM
TGI [23]: > 100 µM
TGI [24]: > 100 µM
TGI [25]: > 100 µM
TGI [26]: > 100 µM
TGI [27]: > 100 µM
TGI [28]: > 100 µM
TGI [29]: > 100 µM
TGI [30]: > 100 µM
TGI [31]: > 100 µM
TGI [32]: > 100 µM
TGI [33]: > 100 µM
TGI [34]: > 100 µM
TGI [35]: > 100 µM
TGI [36]: > 100 µM
TGI [37]: > 100 µM
TGI [38]: > 100 µM
TGI [39]: > 100 µM
TGI [40]: > 100 µM
TGI [41]: > 100 µM
TGI [42]: > 100 µM
TGI [43]: > 100 µM
TGI [44]: > 100 µM
TGI [45]: 74.7 µM
TGI [46]: > 100 µM
TGI [47]: > 100 µM
TGI [48]: > 100 µM
TGI [49]: > 100 µM
TGI [50]: > 100 µM
TGI [51]: > 100 µM
TGI [52]: > 100 µM
TGI [53]: > 100 µM
TGI [54]: > 100 µM
TGI [55]: > 100 µM

CC1(C)N[P+]2(Nc3ccccc3O2)OC1=O (stereo not given)
TGI [1]: > 100 µM
TGI [2]: > 100 µM
TGI [4]: > 100 µM
TGI [5]: > 100 µM
TGI [6]: > 100 µM
TGI [7]: 49.9 µM
TGI [8]: > 100 µM
TGI [9]: > 100 µM
TGI [10]: 33.2 µM
TGI [11]: > 100 µM
TGI [12]: > 100 µM
TGI [13]: > 100 µM
TGI [14]: > 100 µM
TGI [15]: > 100 µM
TGI [56]: > 100 µM
TGI [16]: 64 µM
TGI [17]: > 100 µM
TGI [18]: > 100 µM
TGI [19]: > 100 µM
TGI [20]: > 100 µM
TGI [21]: > 100 µM
TGI [22]: > 100 µM
TGI [23]: > 100 µM
TGI [24]: > 100 µM
TGI [25]: > 100 µM
TGI [26]: > 100 µM
TGI [27]: > 100 µM
TGI [28]: > 100 µM
TGI [57]: > 100 µM
TGI [29]: > 100 µM
TGI [30]: > 100 µM
TGI [31]: > 100 µM
TGI [32]: > 100 µM
TGI [33]: > 100 µM
TGI [34]: > 100 µM
TGI [36]: > 100 µM
TGI [37]: > 100 µM
TGI [38]: > 100 µM
TGI [39]: > 100 µM
TGI [40]: > 100 µM
TGI [41]: > 100 µM
TGI [42]: > 100 µM
TGI [43]: > 100 µM
TGI [44]: > 100 µM
TGI [45]: > 100 µM
TGI [46]: > 100 µM
TGI [47]: > 100 µM
TGI [48]: > 100 µM
TGI [49]: > 100 µM
TGI [50]: > 100 µM
TGI [51]: > 100 µM
TGI [52]: 38.7 µM
TGI [53]: > 100 µM
TGI [54]: > 100 µM
TGI [55]: > 100 µM

Cn1ccc(C(=O)NCCCCCNC(=O)c2ccn(C)c(=O)c2O)c(O)c1=O
TGI [2]: > 100 µM
TGI [3]: > 100 µM
TGI [5]: > 100 µM
TGI [6]: > 100 µM
TGI [7]: > 100 µM
TGI [9]: > 100 µM
TGI [10]: > 100 µM
TGI [11]: > 100 µM
TGI [12]: > 100 µM
TGI [13]: > 100 µM
TGI [15]: > 100 µM
TGI [56]: > 100 µM
TGI [16]: > 100 µM
TGI [17]: > 100 µM
TGI [18]: > 100 µM
TGI [20]: > 100 µM
TGI [22]: > 100 µM
TGI [23]: > 100 µM
TGI [24]: > 100 µM
TGI [25]: > 100 µM
TGI [26]: > 100 µM
TGI [27]: > 100 µM
TGI [28]: > 100 µM
TGI [57]: > 100 µM
TGI [29]: > 100 µM
TGI [58]: > 100 µM
TGI [31]: > 100 µM
TGI [32]: > 100 µM
TGI [33]: > 100 µM
TGI [34]: > 100 µM
TGI [35]: > 100 µM
TGI [36]: > 100 µM
TGI [37]: > 100 µM
TGI [40]: > 100 µM
TGI [41]: > 100 µM
TGI [59]: > 100 µM
TGI [44]: > 100 µM
TGI [46]: > 100 µM
TGI [48]: > 100 µM
TGI [49]: > 100 µM
TGI [50]: > 100 µM
TGI [51]: > 100 µM
TGI [52]: > 100 µM
TGI [55]: > 100 µM

O=C(O)c1ccc(Nc2nc3ccccc3nc2C(=O)O)cc1
TGI [1]: > 100 µM
TGI [2]: > 100 µM
TGI [3]: > 100 µM
TGI [4]: > 100 µM
TGI [5]: > 100 µM
TGI [6]: > 100 µM
TGI [7]: > 100 µM
TGI [8]: > 100 µM
TGI [9]: > 100 µM
TGI [10]: > 100 µM
TGI [11]: > 100 µM
TGI [12]: > 100 µM
TGI [13]: > 100 µM
TGI [14]: > 100 µM
TGI [15]: > 100 µM
TGI [56]: > 100 µM
TGI [16]: > 100 µM
TGI [18]: > 100 µM
TGI [19]: > 100 µM
TGI [20]: > 100 µM
TGI [21]: > 100 µM
TGI [22]: > 100 µM
TGI [23]: > 100 µM
TGI [24]: > 100 µM
TGI [25]: > 100 µM
TGI [27]: > 100 µM
TGI [30]: > 100 µM
TGI [58]: > 100 µM
TGI [31]: > 100 µM
TGI [32]: > 100 µM
TGI [33]: > 100 µM
TGI [34]: > 100 µM
TGI [35]: > 100 µM
TGI [37]: > 100 µM
TGI [38]: > 100 µM
TGI [39]: > 100 µM
TGI [40]: > 100 µM
TGI [41]: > 100 µM
TGI [42]: > 100 µM
TGI [59]: > 100 µM
TGI [43]: > 100 µM
TGI [44]: > 100 µM
TGI [45]: > 100 µM
TGI [46]: > 100 µM
TGI [47]: > 100 µM
TGI [48]: > 100 µM
TGI [49]: > 100 µM
TGI [50]: > 100 µM
TGI [52]: > 100 µM
TGI [53]: > 100 µM
TGI [55]: > 100 µM
